In patent publication US10328113B2, “Method for preventing or treating an allergic disease using extract from illicium verum” (Korea Institute of Oriental Medicine, priority 2012, dated 2019):

Key:
IL-4 = IL-4 secretion inhibition, PMA and A23187-stimulated MC/9 mast cells (ELISA); assay type: cell-based; conditions: Mus musculus, Mast cell; positive control 10 nM; PMA + A23187, 7 hr; read-out: Inhibition rate of IL-4 (%)
Procedure: (§1) MC/9 mouse mast cells seeded in a 96-well plate were treated with 20 nM PMA (Phorbol Myristate Acetate) and 0.5 μM or 1 μM calcium ionophore A23187, together with various concentrations of the Illicium verum extract (0, 25, 50, 100, 200 and 400 μg/ml). […] Seven hour later, the secreted amount of cytokines in medium was measured using the ELISA kit (R&D systems Inc., Minneapolis, USA). The 100% activity was calculated with referring to difference of the secreted cytokine amount between the untreated group and the treated group with PMA and A23187.
(§2) The secretion amount was calculated as follows: [1−(the amount of the secreted cytokine in the treated group−the amount of the secreted cytokine in the untreated group)/(the amount of secreted […] in the untreated group]×100.
(§3) The inhibition rate was calculated as follows: [1−(the amount of the secreted cytokine in the treated group−the amount of the secreted cytokine in the untreated group)/(the amount of secreted cytokine in positive control−the amount of the secreted cytokine in the untreated group]×100.
(§4) All data were expressed as mean±standard deviation. Student's t-test was used to examine differences among groups and the data with p<0.05 were considered as statistically significant.

IL-8 = IL-8 secretion inhibition, PMA and A23187-stimulated MC/9 mast cells (ELISA); assay type: cell-based; conditions: Mus musculus, Mast cell; positive control 10 nM; PMA + A23187, 7 hr; read-out: Inhibition rate of IL-8 (%)
Procedure: as §1, §2, §3, §4

Question: How did the inhibition at 0.01 µM (IL-4) turn out when C[C@@H]1C[C@H]2[C@@H]3CCC4=CC(=O)C=C[C@]4(C)[C@@]3(F)[C@@H](O)C[C@]2(C)[C@@]1(O)C(=O)CO [Dex, dexamethasone] was run?
Answer: The inhibition at 0.01 µM was 0.4%.

Question: And the inhibition at 0.01 µM (IL-8)?
Answer: Its inhibition at 0.01 µM is 23%.
